In US12577267B2, “Pyrimidine compounds for use as MAP4K1 inhibitors” (GLENMARK SPECIALITY S.A., priority 2021, dated 2026):
Structures can show the parent of a compound that is named as a salt. Where two headings read alike, the source gives them in different places.

Molecular target: MAP4K-1 enzyme (Homo sapiens, UniProt Q92918)
Experiment: FRET one step binding assay (tracer displacement)
Conditions: for inhibition at 1 µM / % Inhibition at 1 μM: 1 μM compound; for inhibition at 10 µM / % Inhibition at 10 μM: 10 μM compound
Protocol: This is a one step binding assay based on the binding and displacement of the labeled tracer, where compound addition is followed by addition of the anti-GST tagged europium (Eu) as the donor and Alexa Fluor-labeled tracer as the acceptor.
Test compounds were dissolved in dimethylsulfoxide (DMSO) to prepare 10.0 mM stock solutions and diluted to the desired concentration. The final concentration of DMSO in the reaction was 3% (v/v). The assay mixture was prepared by mixing 2 nM of the Eu-Anti-GST Antibody and 5 nM MAP4K-1 enzyme in the Kinase buffer containing 50 mM HEPES (pH 7.5), 10 mM MgCl2, 1 mM EGTA, 0.01% Brij-35 with or without the desired concentration of the compound. The reaction was incubated on ice for 15 min. […] After shaking for 5 min the reaction was further incubated for 1 hour at room temperature and this was kept at 4° C. and read on ARTEMIS reader as per the kit instructions (Thermo). […] The activity was calculated as percent of control reaction. IC50 values were calculated from dose response curve by nonlinear regression analysis using GraphPad Prism software.

MAP4K-1 enzyme, sequence (Q92918 whole entry): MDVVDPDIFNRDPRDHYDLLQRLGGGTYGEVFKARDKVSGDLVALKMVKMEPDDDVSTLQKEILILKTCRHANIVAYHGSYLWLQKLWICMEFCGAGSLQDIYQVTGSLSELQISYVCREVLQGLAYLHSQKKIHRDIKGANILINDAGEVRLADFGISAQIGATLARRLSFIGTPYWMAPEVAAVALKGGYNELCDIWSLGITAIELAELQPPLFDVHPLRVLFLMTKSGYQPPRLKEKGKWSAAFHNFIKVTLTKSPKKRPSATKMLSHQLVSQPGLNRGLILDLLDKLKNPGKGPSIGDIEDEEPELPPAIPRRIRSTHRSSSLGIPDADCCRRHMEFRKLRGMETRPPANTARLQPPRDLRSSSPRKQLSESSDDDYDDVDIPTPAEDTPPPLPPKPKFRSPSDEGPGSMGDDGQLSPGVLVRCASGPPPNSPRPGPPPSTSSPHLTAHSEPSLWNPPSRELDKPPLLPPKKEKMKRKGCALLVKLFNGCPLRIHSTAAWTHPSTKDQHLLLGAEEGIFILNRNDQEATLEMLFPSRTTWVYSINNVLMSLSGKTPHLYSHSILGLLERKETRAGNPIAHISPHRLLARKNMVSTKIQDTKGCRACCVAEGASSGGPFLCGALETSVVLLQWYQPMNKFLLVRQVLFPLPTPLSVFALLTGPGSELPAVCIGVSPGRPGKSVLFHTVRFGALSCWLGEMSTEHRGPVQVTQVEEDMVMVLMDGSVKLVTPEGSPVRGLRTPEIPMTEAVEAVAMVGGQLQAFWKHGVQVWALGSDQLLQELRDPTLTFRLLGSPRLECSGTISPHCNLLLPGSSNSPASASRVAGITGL

Structure (SMILES): COc1cc2c(cc1Nc1ncc(Cl)c(Nc3ccc(OS(=O)(=O)F)cc3P(C)(C)=O)n1)COCC2 [Example 28, 4-((5-Chloro-2-((6-methoxyisochroman-7-yl)amino)pyrimidin-4-yl)amino)-3-(dimethylphosphoryl)phenyl sulfofluoridate hydrochloride]
- inhibition at 1 µM: 69.7%
- inhibition at 10 µM: 75.9%
- IC50 (IC50 (nM)): < 50 nM

Structure (SMILES): COc1cc2c(cc1Nc1ncc(Cl)c(Nc3cc(OS(=O)(=O)F)ccc3P(C)(C)=O)n1)CN(C)C(C)C2 (single isomer, unassigned; isomer 1) [Example 35, 3-((5-Chloro-2-((6-methoxy-2,3-dimethyl-1,2,3,4-tetrahydroisoquinolin-7-yl)amino)pyrimidin-4-yl)amino)-4-(dimethylphosphoryl)phenyl sulfofluoridate dihydrochloride (Isomer 1)]
- inhibition at 1 µM: 83%
- inhibition at 10 µM: 79.1%
- IC50 (IC50 (nM)): < 50 nM

Structure (SMILES): COc1cc2c(cc1Nc1ncc(Cl)c(Nc3ccc(OS(=O)(=O)F)cc3P(C)(C)=O)n1)CN(C)C(C)(C)C2 [Example 25, 4-((5-Chloro-2-((6-methoxy-2,3,3-trimethyl-1,2,3,4-tetrahydroisoquinolin-7-yl)amino)pyrimidin-4-yl)amino)-3-(dimethylphosphoryl)phenyl sulfofluoridate dihydrochloride]
- inhibition at 1 µM: 85.9%
- inhibition at 10 µM: 90.7%
- IC50 (IC50 (nM)): < 50 nM

Structure (SMILES): COc1cc2c(cc1Nc1ncc(Cl)c(Nc3ncc(OS(=O)(=O)F)cc3P(C)(C)=O)n1)CN(C)CC2 [Example 20, 6-((5-Chloro-2-((6-methoxy-2-methyl-1,2,3,4-tetrahydroisoquinolin-7-yl)amino)pyrimidin-4-yl)amino)-5-(dimethylphosphoryl)pyridin-3-yl sulfofluoridate dihydrochloride]
- inhibition at 1 µM: 80.1%
- inhibition at 10 µM: 75.5%
- IC50 (IC50 (nM)): < 50 nM

Structure (SMILES): COc1cc2c(cc1Nc1ncc(Cl)c(Oc3ccccc3P(C)(C)=O)n1)CN(C)CC2 [Example 59, (2-((5-Chloro-2-((6-methoxy-2-methyl-1,2,3,4-tetrahydroisoquinolin-7-yl)amino)pyrimidin-4-yl)oxy)phenyl)dimethylphosphine oxide]
- inhibition at 1 µM: 83.1%
- inhibition at 10 µM: 87.3%
- IC50 (read-out: IC50): < 50 nM

Structure (SMILES): COc1cc2c(cc1Nc1ncc(Cl)c(Nc3cnc(OS(=O)(=O)F)cc3P(C)(C)=O)n1)CN(C)CC2 [Example 37, 5-((5-Chloro-2-((6-methoxy-2-methyl-1,2,3,4-tetrahydroisoquinolin-7-yl)amino)pyrimidin-4-yl)amino)-4-(dimethylphosphoryl)pyridin-2-ylsulfofluoridate]
- % Inhibition at 1 μM: 84.45%
- % Inhibition at 10 μM: 84.73%
- IC50 (read-out: IC50): < 50 nM

Structure (SMILES): COc1cc2c(cc1Nc1ncc(Cl)c(Nc3ccc(O[C@@H]4CCOC4)cc3P(C)(C)=O)n1)CN(C)CC2 [Example 49, (R)-(2-((5-Chloro-2-((6-methoxy-2-methyl-1,2,3,4-tetrahydroisoquinolin-7-yl)amino)pyrimidin-4-yl)amino)-5-((tetrahydrofuran-3-yl)oxy)phenyl)dimethyl phosphine oxide]
- inhibition at 1 µM: 94.3%
- inhibition at 10 µM: 91.7%
- IC50 (read-out: IC50): < 50 nM

Structure (SMILES): COc1cc2c(cc1Nc1ncc(Cl)c(Nc3ccc(OS(=O)(=O)F)cc3P(C)(C)=O)n1)CN(CC(F)(F)F)CC2.Cl.Cl [Example 7, 4-((5-Chloro-2-((6-methoxy-2-(2,2,2-trifluoroethyl)-1,2,3,4-tetrahydroisoquinolin-7-yl)amino)pyrimidin-4-yl)amino)-3-(dimethyllphosphoryl)phenyl sulfurofluoridate dihydrochloride]
- % Inhibition at 1 μM: 37.71%
- % Inhibition at 10 μM: 69.74%

Structure (SMILES): COc1cc2c(cc1Nc1ncc(Cl)c(Nc3ccc(OS(=O)(=O)F)cc3P(C)(C)=O)n1)CN(C)C(C)C2 (single isomer, unassigned; isomer 1) [Example 33, 4-((5-Chloro-2-((6-methoxy-2,3-dimethyl-1,2,3,4-tetrahydroisoquinolin-7-yl)amino)pyrimidin-4-yl)amino)-3-(dimethylphosphoryl)phenyl sulfofluoridate dihydrochloride (Isomer 1)]
- inhibition at 1 µM: 92.8%
- inhibition at 10 µM: 87.8%
- IC50 (IC50 (nM)): < 50 nM

Structure (SMILES): COc1cc2c(cc1Nc1ncc(Cl)c(Nc3ccc(OS(=O)(=O)F)cc3P(C)(C)=O)n1)C(C)N(C)CC2 (racemic) [Example 12, ±4-((5-chloro-2-((6-methoxy-1,2-dimethyl-1,2,3,4-tetrahydroisoquinolin-7-yl)amino)pyrimidin-4-yl)amino)-3-(dimethylphos-phoryl)phenylsulfurofluoridate dihydrochloride]
- inhibition at 1 µM: 87.5%
- inhibition at 10 µM: 85.9%
- IC50 (IC50 (nM)): < 50 nM

Structure (SMILES): COc1cc2c(cc1Nc1ncc(Cl)c(Nc3ccc(OS(=O)(=O)F)cc3P(C)(C)=O)n1)C(C)(C)N(C)CC2 [Example 11, 4-((5-Chloro-2-((6-methoxy-1,1,2-trimethyl-1,2,3,4-tetrahydroisoquinolin-7-yl)amino)pyrimidin-4-yl)amino)-3-(dimethylphosphoryl)phenyl sulfurofluoridate dihydrochloride]
- inhibition at 1 µM: 75.1%
- inhibition at 10 µM: 87.2%
- IC50 (IC50 (nM)): < 50 nM

Structure (SMILES): COc1cc2c(cc1Nc1ncc(Cl)c(Nc3ccc(O)cc3P(C)(C)=O)n1)CN(C)CC2 [Example 1, (2-((5-Chloro-2-((6-methoxy-2-methyl-1,2,3,4-tetrahydroisoquinolin-7-yl)amino)pyrimidin-4-yl)amino)-5-hydroxyphenyl)dimethylphosphineoxide dihydrochloride]
- inhibition at 1 µM: 87.2%
- inhibition at 10 µM: 86.5%
- IC50 (read-out: IC50): < 50 nM

Structure (SMILES): [2H]C([2H])([2H])N1CCc2cc(OC)c(Nc3ncc(Cl)c(Nc4ccc(OS(=O)(=O)F)cc4P(C)(C)=O)n3)cc2C1 [Example 4, 4-((5-Chloro-2-((6-methoxy-2-(methyl-d3)-1,2,3,4-tetrahydroisoquinolin-7-yl)amino)pyramidin-4-yl)amino)-3-(dimethylphosphoryl) phenylsulfurofluoridate dihydrochloride]
- inhibition at 1 µM: 72.9%
- inhibition at 10 µM: 78.4%
- IC50 (IC50 (nM)): < 50 nM

Structure (SMILES): COc1cc2c(cc1Nc1ncc(Cl)c(Oc3ccc(OS(=O)(=O)F)cc3P(C)(C)=O)n1)CN(C)CC2 [Example 60, 4-((5-Chloro-2-((6-methoxy-2-methyl-1,2,3,4-tetrahydroisoquinolin-7-yl)amino)pyrimidin-4-yl)oxy)-3-(dimethylphosphoryl)phenylsulfofluoridate dihydrochloride]
- inhibition at 1 µM: 70.5%
- inhibition at 10 µM: 83.4%
- IC50 (IC50 (nM)): 100 to 500 nM

Structure (SMILES): COc1cc2c(cc1Nc1ncc(Cl)c(Nc3ncc(OS(=O)(=O)F)cc3P(C)(C)=O)n1)C(C)N(C)CC2 (single isomer, unassigned; isomer 2) [Example 24, 6-((5-Chloro-2-((6-methoxy-1,2-dimethyl-1,2,3,4-tetrahydroisoquinolin-7-yl)amino)pyrimidin-4-yl)amino)-5-(dimethylphosphoryl)pyridin-3-yl sulfofluoridate dihydrochloride (Isomer 2)]
- % Inhibition at 1 μM (1 µM): 86.68%
- % Inhibition at 10 μM (10 µM): 85.52%
- IC50 (IC50 (nM)): < 50 nM

Structure (SMILES): COc1cc2c(cc1Nc1ncc(Cl)c(Nc3cccc(OS(=O)(=O)F)c3P(C)(C)=O)n1)CN(C)CC2 [Example 19, 3-((5-Chloro-2-((6-methoxy-2-methyl-1,2,3,4-tetrahydroisoquinolin-7-yl)amino)pyrimidin-4-yl)amino)-2-(dimethylphosphoryl) phenylsulfofluoridate dihydrochloride]
- inhibition at 1 µM: 76.6%
- inhibition at 10 µM: 78.2%
- IC50 (IC50 (nM)): < 50 nM

Structure (SMILES): COc1cc2c(cc1Nc1ncc(Cl)c(Nc3ccc(N(C)C(=O)C(F)F)cc3P(C)(C)=O)n1)CN(C)CC2 [Example 53, N-(4-((5-Chloro-2-((6-methoxy-2-methyl-1,2,3,4-tetrahydroisoquinolin-7-yl)amino)pyrimidin-4-yl)amino)-3-(dimethylphosphoryl)phenyl)-2,2-difluoro-N-methylacetamide]
- inhibition at 1 µM: 82.4%
- inhibition at 10 µM: 90%
- IC50 (read-out: IC50): 50 to 100 nM

Structure (SMILES): Cl.Cl.[2H]C([2H])([2H])Oc1cc2c(cc1Nc1ncc(Cl)c(Nc3ccc(OS(=O)(=O)F)cc3P(C)(C)=O)n1)CN(C)CC2 [Example 5, 4-((5-Chloro-2-((6-(methoxy-d3)-2-methyl-1,2,3,4-tetrahydroisoquinolin-7-yl)amino)pyrimidin-4-yl)amino)-3-(dimethylphosphoryl)phenyl sulfurofluoridate dihydrochloride]
- inhibition at 1 µM: 78.1%
- inhibition at 10 µM: 82.5%
- IC50 (IC50 (nM)): < 50 nM
